Values joined by “and” are separate entries in the source; they are usually repeats but may differ in a detail not shown here. Equal values may be shown once.
Legend:
hKOR = hKOR (Homo sapiens, UniProt P41145); assay: CAMYEL BRET cAMP agonist assay at hKOR; format: cell-based; details: individual replicates, Supplementary Figure 8A source data
mMOR = target: T1, mMOR (Mus musculus, UniProt P42866); assay: [125I]BNtxA radioligand competition binding, mouse MOR; details: mean ± SEM, n = 3; [125I]BNtxA; read-out: Ki ± SEM mMOR
T1 construct: signal peptide (heterologous, not specified) (N); expressed in transfected cells; pcDNA3.1(+) construct made in house

rKOR = target: T2, rKOR (Rattus norvegicus, UniProt P34975); assay: CAMYEL BRET cAMP agonist assay at rKOR; format: cell-based; details: individual replicates, Supplementary Figure 8B source data
T2 construct: expressed in transfected cells

hMOR = target: T3, hMOR (Homo sapiens, UniProt P35372); assay: CAMYEL BRET cAMP agonist assay at hMOR; format: cell-based; details: for cAMP %: hMOR, single replicates, source data Fig 6c, listed as C11-Cl-7OH (23)
T3 construct: expressed in transfected cells; plasmid a gift from Dr. Nevin Lambert

hDOR = hDOR (Homo sapiens, UniProt P41143); assay: CAMYEL BRET cAMP agonist assay at hDOR; format: cell-based; details: for Agonist activity of 7OH analogs at hDOR: single replicate values, Supplementary Figure 7A
Chain of hDOR (P41143 whole entry): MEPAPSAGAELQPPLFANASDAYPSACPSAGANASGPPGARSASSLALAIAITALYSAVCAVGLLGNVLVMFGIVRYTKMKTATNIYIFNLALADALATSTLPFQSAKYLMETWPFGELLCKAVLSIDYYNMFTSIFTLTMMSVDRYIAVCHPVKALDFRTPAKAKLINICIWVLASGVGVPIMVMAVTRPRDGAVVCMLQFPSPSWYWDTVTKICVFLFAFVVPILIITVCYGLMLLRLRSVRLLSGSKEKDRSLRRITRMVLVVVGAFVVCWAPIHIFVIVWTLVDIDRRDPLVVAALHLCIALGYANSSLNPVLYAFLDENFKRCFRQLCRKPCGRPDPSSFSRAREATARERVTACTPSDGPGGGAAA

T3 sequence (P35372 whole entry): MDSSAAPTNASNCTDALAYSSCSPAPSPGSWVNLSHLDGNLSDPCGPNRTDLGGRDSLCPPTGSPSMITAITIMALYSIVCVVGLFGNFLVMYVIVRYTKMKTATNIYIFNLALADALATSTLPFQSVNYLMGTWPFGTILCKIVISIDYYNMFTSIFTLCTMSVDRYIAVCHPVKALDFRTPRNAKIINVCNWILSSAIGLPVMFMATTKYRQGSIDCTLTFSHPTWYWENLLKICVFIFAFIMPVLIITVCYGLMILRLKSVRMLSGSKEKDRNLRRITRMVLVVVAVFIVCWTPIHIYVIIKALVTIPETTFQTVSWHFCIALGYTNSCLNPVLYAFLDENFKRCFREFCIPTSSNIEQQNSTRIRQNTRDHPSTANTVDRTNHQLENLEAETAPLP
Chain of hKOR (P41145 whole entry): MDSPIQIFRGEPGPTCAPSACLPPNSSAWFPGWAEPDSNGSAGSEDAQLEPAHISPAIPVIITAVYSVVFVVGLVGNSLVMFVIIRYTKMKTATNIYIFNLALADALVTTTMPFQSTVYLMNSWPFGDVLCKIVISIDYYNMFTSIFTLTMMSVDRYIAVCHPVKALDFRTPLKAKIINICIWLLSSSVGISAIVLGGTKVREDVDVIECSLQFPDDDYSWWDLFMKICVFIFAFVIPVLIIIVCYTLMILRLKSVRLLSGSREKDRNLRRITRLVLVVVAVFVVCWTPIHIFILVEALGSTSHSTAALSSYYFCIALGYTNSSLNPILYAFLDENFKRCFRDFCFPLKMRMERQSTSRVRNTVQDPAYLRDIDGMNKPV
T2 sequence (P34975 whole entry): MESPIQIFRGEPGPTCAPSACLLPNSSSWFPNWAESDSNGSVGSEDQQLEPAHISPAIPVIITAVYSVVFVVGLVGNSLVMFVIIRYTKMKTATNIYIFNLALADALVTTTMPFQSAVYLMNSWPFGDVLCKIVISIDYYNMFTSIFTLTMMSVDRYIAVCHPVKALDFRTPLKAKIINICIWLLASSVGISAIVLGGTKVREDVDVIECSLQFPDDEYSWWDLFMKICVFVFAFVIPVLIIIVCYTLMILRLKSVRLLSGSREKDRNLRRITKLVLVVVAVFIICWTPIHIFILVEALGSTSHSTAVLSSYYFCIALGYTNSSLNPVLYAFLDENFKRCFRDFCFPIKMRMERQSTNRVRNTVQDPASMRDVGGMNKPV
T1 sequence (P42866 whole entry): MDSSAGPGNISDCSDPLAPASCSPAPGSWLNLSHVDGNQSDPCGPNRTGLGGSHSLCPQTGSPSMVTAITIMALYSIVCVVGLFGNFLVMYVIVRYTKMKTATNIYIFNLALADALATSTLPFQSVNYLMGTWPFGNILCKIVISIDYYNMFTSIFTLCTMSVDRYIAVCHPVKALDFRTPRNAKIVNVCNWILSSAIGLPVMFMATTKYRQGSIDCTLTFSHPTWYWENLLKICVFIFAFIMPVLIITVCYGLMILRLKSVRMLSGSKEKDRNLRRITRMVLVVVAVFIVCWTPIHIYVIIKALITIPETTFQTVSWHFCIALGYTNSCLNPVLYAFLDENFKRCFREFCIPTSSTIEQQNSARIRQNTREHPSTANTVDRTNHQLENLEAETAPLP

## CC[C@@H]1CN2CC[C@@]3(O)C(=Nc4cc(Cl)cc(OC)c43)[C@@H]2C[C@@H]1/C(=C\OC)C(=O)OC [11-Cl-7OH (23), 11-Cl-7OH]
hKOR; Log [drug](M) -7
  Agonist activity of 7OH analogs at hKOR: -11.1771 and -3.626 and -0.5883 and -1.763 and -7.04 and -2.623 and -4.522 and -13.931 and 0.01935
hKOR; Log [drug](M) -8
  Agonist activity of 7OH analogs at hKOR: 2.99 and -4.136 and 1.141 and -3.765 and -7.282 and -9.586 and -2.533 and -2.303 and 3.7063
hKOR; Log [drug](M) -9
  Agonist activity of 7OH analogs at hKOR: -6.592 and -11.4451 and 3.708 and 3.417 and -6.737 and -11.3529 and 17.5943 and 11.6069 and 9.781
hKOR; Log [drug](M) -10
  Agonist activity of 7OH analogs at hKOR: -2.387 and -3.9069 and 3.049 and -10.4557 and -1.189 and 2.17 and 4.733 and 0.5961 and 8.633
hKOR; Log [drug](M) -11
  Agonist activity of 7OH analogs at hKOR: 8.282 and -7.987 and 6.107 and 1.524 and -1.1871 and -6.8877 and 2.73 and 5.876 and 10.03
hKOR; Log [drug](M) -13
  Agonist activity of 7OH analogs at hKOR: 4.46 and -4.721 and 0.2615 and 1.311 and -2.987 and 1.677 and 6.874 and 5.681 and 9.762
mMOR
  Ki: 27.1 ± 1.1 nM
rKOR; Log [drug](M) -5
  Agonist activity of 7OH analogs at rKOR: 7.778 and 10.9917 and 16.9019 and -6.188 and -1.8256 and 8.442 and 6.4374 and 16.0399 and 7.566
rKOR; Log [drug](M) -6
  Agonist activity of 7OH analogs at rKOR: 8.066 and 4.412 and -3.244 and 6.747 and -4.426 and -2.321 and 10.6533 and 7.813 and 3.403
rKOR; Log [drug](M) -7
  Agonist activity of 7OH analogs at rKOR: 11.5045 and -0.8261 and -10.6783 and 7.768 and -4.174 and 5.42 and 2.7074 and 2.952 and 8.478
rKOR; Log [drug](M) -8
  Agonist activity of 7OH analogs at rKOR: 0.508 and -0.7332 and 4.656 and 8.713 and 2.1745 and 4.589 and 10.047 and 0.1108 and 9.912
rKOR; Log [drug](M) -9
  Agonist activity of 7OH analogs at rKOR: 6.738 and 3.9698 and 11.9053 and 20.8557 and 20.3344 and 22.4492 and 3.132 and -0.673 and 0.03935
rKOR; Log [drug](M) -10
  Agonist activity of 7OH analogs at rKOR: 7.8399 and 7.154 and 27.1145 and 5.225 and 8.778 and 7.65 and 0.6993 and -2.781 and 2.082
rKOR; Log [drug](M) -11
  Agonist activity of 7OH analogs at rKOR: 20.1355 and 7.2112 and 5.419 and 15.9158 and 14.9773 and 3.289 and 5.031 and 2.5469 and 3.562
rKOR; Log [drug](M) -13
  Agonist activity of 7OH analogs at rKOR: 2.6438 and 19.3085 and 15.1998 and 15.6888 and 12.292 and 1.7 and 4.489 and 13.3107 and 4.029
hMOR
  EC50: 717 nM
  Emax: 23%
hMOR; Log[drug] (M) -5
  cAMP %: 24.2611% and 22.8658% and 18.7916% and 30.0534% and 27.3903% and 24.7857% and 23.2679% and 13.839% and 17.3142%
hMOR; Log[drug] (M) -6
  cAMP %: 9.687% and 7.44% and 12.4984% and 21.3658% and 16.0104% and 20.3589% and 22.2511% and 5.161% and 10.3498%
hMOR; Log[drug] (M) -7
  cAMP %: 10.7608% and 2.692% and 16.2864% and 16.6401% and 9.757% and 17.1458% and 11.7292% and -1.4445% and 4.302%
hMOR; Log[drug] (M) -8
  cAMP %: -0.5618% and -5.878% and 6.44% and 1.224% and 16.3686% and 4.4% and 2.431% and 4.114% and 14.2353%
hMOR; Log[drug] (M) -9
  cAMP %: 10.2691% and 5.0211% and 7.383% and 19.7872% and -6.277% and -5.837% and 8.258% and 7.437% and 22.4848%
hMOR; Log[drug] (M) -10
  cAMP %: 8.636% and -0.2251% and 3.667% and 1.365% and 3.739% and -5.1037% and -3.2997% and -3.028% and 15.0493%
hMOR; Log[drug] (M) -11
  cAMP %: 5.568% and -0.09872% and -1.208% and 11.7024% and 0.1582% and 4.468% and 2.344% and 1.001% and -3.345%
hMOR; Log[drug] (M) -13, cAMP inhibition as % of DAMGO
  cAMP %: 15.4388% and 3.989% and -0.7984% and 3.857% and -0.6743% and 5.111% and -4.4777% and 4.879% and 4.064%
hDOR; Log[drug] (M) -5
  Agonist activity of 7OH analogs at hDOR: 17.1397 and 15.6735 and 17.1747 and 8.18 and -3.544 and 1.305 and 21.6642 and 15.0671 and 20.6929
hDOR; Log[drug] (M) -6
  Agonist activity of 7OH analogs at hDOR: 30.6083 and 25.9231 and 32.3513 and 1.677 and 12.7082 and 9.625 and 17.2797 and 6.922 and 2.636
hDOR; Log[drug] (M) -7
  Agonist activity of 7OH analogs at hDOR: 15.9329 and 22.4846 and 15.3548 and 1.086 and 2.267 and 6.255 and -1.22 and -1.151 and 2.37
hDOR; Log[drug] (M) -8
  Agonist activity of 7OH analogs at hDOR: 13.6904 and 16.1168 and 10.9974 and 2.935 and -7.546 and 4.612 and 5.7671 and 0.4715 and 17.0267
hDOR; Log[drug] (M) -9
  Agonist activity of 7OH analogs at hDOR: 23.852 and 14.4843 and 22.6626 and 18.4578 and 15.1232 and 4.553 and 18.1791 and 11.0147 and 18.7534
hDOR; Log[drug] (M) -10
  Agonist activity of 7OH analogs at hDOR: 5.724 and 19.2021 and 4.266 and 3.553 and -1.827 and 11.1585 and 2.694 and 3.131 and 7.14
hDOR; Log[drug] (M) -11
  Agonist activity of 7OH analogs at hDOR: 7.339 and 12.4107 and 20.099 and 7.6883 and 4.754 and 8.248 and 8.188 and 1.326 and 2.427
hDOR; Log[drug] (M) -13
  Agonist activity of 7OH analogs at hDOR: -6.485 and 2.218 and 4.267 and 9.369 and -0.6447 and 11.9855 and 0.02092 and 7.539 and 4.083
hDOR; hDOR cAMP BRET, positive control DPDPE
  Emax: very low efficacy
